The assay has as its system Rat Aorta. The experiment in a line: inhibition of calcium induced contraction of vascular smooth muscle (rat aorta segments). The format is cell-based, male Sprague-Dawley rats. The following applies: 1.0 mM calcium chloride induced contraction, read-out: Percent Inhibition of Rat Aorta; for inhibition at 0.1 µM: at 10^-7 M; for inhibition at 0.01 µM: at 10^-8 M. As to the method: The property may be observed in a test in which segments of vascular smooth muscle obtained from male Sprague-Dawleyrats are suspended in physiological salt solution in a tissue bath instrumented for recording contractions. After the tissue has been equilibrated, washed in calcium-free physiological salt solution and then depolarized, 1.0 mM calcium chloride is re-added to induce contraction. After the contraction has reached a plateau, tissues are washed and a test compound or vehicle is added to determine the effect achieved by the above cyclic protocol on a second contraction. From measuring the initial contraction as well as the second contraction in the presence of the test compound, the extent of inhibition may be calculated. The results of these tests for representative compounds in the compositions of the present invention are seen in the following table.

Consider `C1=Cc2ccccc2C(N2CCNCC2)c2ccccc21` [1-(5H-Dibenzo[a,d]cyclohepten-5-yl)piperazine], for which the inhibition (in general, the share of the control response that was lost under treatment) at 0.1 µM was 34%.

On to `COc1ccc2c(c1)C(N1CCN(C)CC1)c1ccccc1CC2` (centres unmarked) [1-(10,11-Dihydro-3-methoxy-5H-dibenzo[a,d]cyclohepten-5-yl)-4-methylpiperazine], for which the inhibition at 0.1 µM worked out at 36%.

As to `CN1CCN(C2c3ccccc3C=Cc3ccc(Cl)cc32)CC1` (centres unmarked) [1-(3-Chloro-5H-dibenzo[a,d]cyclohepten-5-yl)-4-methylpiperazine], the inhibition at 0.1 µM was determined as 90%.

`Brc1ccc2c(c1)C(N1CCN(CC=Cc3ccccc3)CC1)c1ccccc1C=C2` (centres unmarked) [1-(3-bromo-5H-dibenzo[a,d]cyclohepten-5-yl)-4-cinnamylpiperazine]: the inhibition at 0.1 µM amounted to 41%.

Take `COc1ccc2c(c1)C(N1CCN(C)CC1)c1ccccc1C=C2` (centres unmarked) [1-(3-Methoxy-5H-dibenzo[a,d]cyclohepten-5-yl)-4-methylpiperazine]: the inhibition at 0.1 µM came out at 65%.

For the molecule `C(=Cc1ccccc1)CN1CCN(C2c3ccccc3C=Cc3ccccc32)CC1` [1-cinnamyl-4-(5H-dibenzo[a,d]cyclohepten-5-yl)piperazine], the inhibition at 0.01 µM worked out at 89%.

As to `CN1CCN(C2c3ccccc3C=Cc3ccc(Br)cc32)CC1` (centres unmarked) [1-(3-Bromo-5H-dibenzo[a,d]cyclohepten-5-yl)-4-methylpiperazine], the inhibition at 0.01 µM was 48%.

With `CSc1ccc2c(c1)C(N1CCN(C)CC1)c1ccccc1C=C2` (centres unmarked) [1-Methyl-4-(3-methylthio-5H-dibenzo[a,d]cyclohepten-5-yl)piperazine], the inhibition at 0.1 µM was 76%.

On to `CCOC(=O)N1CCN(C2c3ccccc3C=Cc3ccccc32)CC1` [Ethyl 4-(5H-Dibenzo[a,d]cyclohepten-5-yl)-1-piperazinecarboxylate], for which the inhibition at 0.1 µM turned out to be 37%.

On to `CN1CCN(C2c3ccccc3C=Cc3ccccc32)CC1` [1-(5H-dibenzo[a,d]cyclohepten-5-yl)-4-methylpiperazine], for which the inhibition at 0.1 µM worked out at 59%.

With `CN1CCN(C2c3ccccc3CSc3ccccc32)CC1` (centres unmarked) [1-(6,11-Dihydrodibenzo[b,e]thiepin-11-yl)-4-methylpiperazine], the inhibition at 0.1 µM came to 30%.

The values are drawn from patent US4616023A, “Pharmaceutical compositions of 4-(dibenzo-[a,d]cycloalkenyl)piperazine compounds and methods” (Merck & Co., Inc., priority 1985, dated 1986).
